From US7074765B2, “Synthetic peptide analogs of Arg-Pro-Pro-Gly-Phe as selective inhibitors of thrombin and thrombin activation of protease activated receptors 1 and 4” (The Regents of the University of Michigan, priority 2003, dated 2006)

How the values were obtained:
[1] = tested on: normal human citrated plasma; assay: activated partial thromboplastin time (APTT); format: biochemical; conditions: normal human plasma; p<0.05
Experimental: The influence of the various peptide formulations used in the present invention on established coagulation-based assays was determined. The activated partial thromboplastin time (APTT) is performed by mixing 0.05 ml normal human citrated plasma with 0.05 ml activated partial thromboplastin reagent purchased from Organon Teknika, Research Triangle Park, N.C. in the absence or presence of a peptide inhibitor. After incubation for 5 min at 37° C., the mixture is recalcified with 0.05 ml of 30 mM calcium chloride and the time to clot formation is measured in an Amelung KC4A instrument (Sigma Chemical Corp, St. Louis, Mo.) (Hasan et al. Thrombosis and Haemostasis. 82, 1182–1187 (1999)). The prothrombin time (PT) is performed by mixing 0.05 ml normal human citrated plasma with 0.05 ml Simplastin (Organon Teknika, Research Triangle Park, N.C.) followed by incubation for 3 min at 37° C. in the absence or presence of a peptide inhibitor. At the addition of 0.05 ml of 30 mM calcium chloride, the time to clot formation is measured in an KC4A instrument (Sigma Chemical Corp, St. Louis, Mo.) (Hasan et al. Thrombosis and Haemostasis. 82, 1182–1187 (1999)). The thrombin clotting time (TCT) is performed by adding 0.1 ml normal human citrated plasma in the absence or presence of a peptide inhibitor and 0.05 ml of a α-thrombin solution such that the final concentration of the thrombin in the entire mixture was 1 nM. Upon addition of the thrombin, the time to clot formation is measured in an KC4A instrument (Sigma Chemical Corp, St. Louis, Mo.). In FIG. 5, peptide TH146 produces a significant prolongation (p<0.05) of the activated partial thromboplastin time at 15 μM, of the prothrombin time at 60 μM, and the thrombin clotting time at 15 μM. In FIG. 6, peptide MAP4-TH146 produced a significant prolongation (p<0.05) of the activated partial thromboplastin time at 0.195 μM, of the prothrombin time at 3.125 μM, and the thrombin clotting time at 0.39 μM.

[2] = target: T1, thrombocytin cleavage of recombinant human PAR1 extracellular domain (Homo sapiens, UniProt P25116); assay: Inhibition of thrombocytin-induced cleavage of rPAR1EC; format: biochemical; conditions: 16.7 nM thrombocytin, 45 min, 37° C.; below concentration that blocks the enzyme's proteolytic activity
T1 construct: A portion of the extracellular domain of human PAR1 (Ala^26-Ser^99) (rPAR1EC) was expressed in Escherichia coli; His10-DDDDK (pET19b) (N); made in house; host or cells: E. coli BL21(DE3), pET19b (rPAR1EC)
T1 sequence (P25116 26-99): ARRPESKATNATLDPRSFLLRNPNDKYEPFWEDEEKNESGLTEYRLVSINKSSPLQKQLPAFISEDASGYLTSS
Experimental: Thrombocytin is a snake venom enzyme that activates platelets by cleaving PAR1 at the thrombin cleavage site (Santos et al., FEBS Letters. 18, 3570–3577 (2000)). […] The ability of MAP4-rOicPGF to block thrombocytin cleavage of rPAR1EC was performed as follows. One μg of rPAR1EC in 0.01 mM Tris-HCL, 0.2 M NaCl, pH 8.0 was incubated at 37° C. for 15 min or 45 min with 1 nM of α-thrombin or 0.5 μg/mL thrombocytin (16.7 nM), respectively, in the absence or presence of 0.025 to 1 mM MAP4-rOicPGF. The reaction mixture was separated on SDS-PAGE and stained with Coomassie Brilliant Blue. The cleaved gel images were scanned using the software Scion Image, ScionCorp, Frederick, Md.

[3] = tested on: normal human lung fibroblasts (NHLF); assay: α-thrombin-induced calcium mobilization in fibroblasts; format: cell-based
Experimental: The second assay developed to assess peptides from the combinatorial libraries uses inhibition of α-thrombin-induced calcium mobilization in fibroblasts. Normal human lung fibroblasts (NHLF) were purchased from Clonetics, San Diego, Calif., an affiliate of Bio-Wittaker, Walkersville, Md. The cytoplasmic free Ca^2+ concentration ([Ca^2+]i) was measured using the fluorescent Ca^2+ indicator fura-2 (Molecular Probes, Inc., Eugene, Oreg.). Suspension of fibroblasts in Hepes-Tyrode's buffer were loaded with fura-2 by incubation at 37° C. with 2 μM fura-2/acetoxymethyl ester for 45 minutes according to the method of Rasmussen et al., J. Biol. Chem. 268, 14322 (1993). The labeled fibroblasts were separated from excess probe by washing by centrifugation at 1000 rpm (180×g). Aliquots of the labeled fibroblasts were transferred into a quartz cuvette with a magnetic stirrer, which was then placed in a thermostatically controlled chamber at 37° C. in a fluorescence spectrophotometer (Perkin-Elmer LS50B spectrofluorometer, Chicago, Ill.). Reagents, test peptide, and α-thrombin (0.25–2 nM), were sequentially added directly to the cuvette. The excitation wavelengths varied between 340 and 380 nm. Fluorescence was measured by recording emitted light at 510 nm as reported by Fisher et al., Mol Pharm. 35, 195 (1989). The minimum emission was determined on a solubilized fibroblast sample in the presence of 10 mM EDTA; maximum emission was determined on the same sample with 10 mM Ca^2+ added. The intrafibroblast free Ca^2+ concentration was calculated by the method of Grykiewicz et al., J. Biol. Chem. 260, 3440 (1985). […] The KD for fura-2 was assumed to be 224 nM. Rmax and Rmin are the maximum and minimum fluorescence ratios measured at the end of the experiment, respectively; Sf2 and Sb2 are the fluorescence values at 380 nm in the absence and presence of saturating [Ca^2+], respectively. The reaction was monitored for 3–5 minutes.

[4] = tested on: PC-3 cells; assay: Thrombin-induced motility of prostate cancer cells (Boyden chamber); format: cell-based; conditions: 100 μM; 2 nM α-thrombin
Experimental: Motility assays are performed with a modified Boyden chamber (tissue culture-treated, 6.5 mm diameter, 10 μm thickness, 8 μm pores). In the motility assays, 2.5×10^4 cells are plated in the top chamber of non-coated polyethylene teraphthalate (PET) membranes (24-well insert, pore size […]; Becton Dickinson). […] RPMI 10% fetal bovine serum is used as a chemoattractant in the lower chamber. […] The cells that transverse the membranes are stained with Dip-Quick (Jorgensen Laboratories, Loveland, Colo.). Cells in five random fields of view at 200× are counted and expressed as the average number of cells/field of view. […]

[5] = target: T2, recombinant protease activated receptor 1 extracellular domain (rPAR1EC) (Homo sapiens, UniProt P25116); assay: Inhibition of RPPGF-biotin binding to rPAR1EC; conditions: 5 mM peptide, 50 μM RPPGF-biotin (FIG. 7); listed in decreasing order
T2 construct: A portion of the extracellular domain of human PAR1 (Ala^26-Ser^99) (rPAR1EC) was expressed in Escherichia coli; His10-DDDDK (pET19b) (N); made in house; host or cells: E. coli BL21(DE3), pET19b
T2 sequence (P25116 26-99): T1 sequence (P25116 26-99)

Substance: β-Ala-Lys-2Lys-4(D-Arg-Oic-Pro-Gly-Phe) [MAP4-rOicPGF]
- concentration giving significant prolongation of the APTT [1]: 0.195 µM
- concentration that blocks thrombocytin cleavage of rPAR1EC [2]: 0.2 mM
- concentrations that blocked α-thrombin-induced Ca^2+ mobilization in fibroblasts ([3]; 0.25 nM α-thrombin): ≥ 3.1 µM
- inhibition of calcium mobilization ([3]; 0.2 mM peptide, 2 nM alpha thrombin): 98%
- effect on alpha thrombin-induced calcium mobilization ([3]; 0.0016 (unit not given) peptide, 2 nM alpha thrombin): full recovery
- effect on thrombin-induced PC-3 cell motility [4]: block
- blocking of RPPGF-biotin binding to rPAR1EC by peptides [5]: blocked
